Where “and” joins values, the source holds several entries; their conditions need not be identical. Equal entries are not always repeated.
What was measured:
[1] = Body weight development of experimentally infected suckling piglets; assay type: in vivo; details: for BW SD 8 / BW SD 15 / BW SD 22 / BW SD 29 / BW SD 1: SD in brackets; for BW SD 1: before treatment
C. suis sporozoites = experiment: Invasion inhibition: sporozoites pre-incubated with BKI 1369, free merozoites counted 9 dpi in IPEC-1 cultures; assay type: cell-based, Cystoisospora suis
Procedure: The laboratory strain C. suis Wien I ([Joachim and Mundt, 2011]), was maintained by passage in suckling piglets every 3–6 months and infectivity in vivo was assessed regularly at the Institute of Parasitology, University of Veterinary Medicine, Vienna. Oocysts were purified from collected feces, brought to sporulation and stored as described elsewhere ([Worliczek et al., 2013]). For in vitro studies, sporozoites were excysted ([Worliczek et al., 2013]), enumerated with a hemocytometer and used immediately for infection of semi-permanent intestinal porcine epithelial cells (IPEC-1). For in vivo studies, sporulated oocysts were washed with tap water and enumerated prior to infection of piglets.
IPEC-1 cells were maintained in culture medium at 37 °C and 5% CO2 (DHEM/HAM12 supplemented with 5% fetal calf serum and penicillin/streptomycin; Gibco via Thermo Fisher, Vienna, Austria). Cells (4 × 10^4) were used to seed 24-well plates and grown to confluence. […] Cell viability in the presence of DMSO and BKIs was determined by colorimetric cell proliferation (WST-1) assays ([Shrestha et al., 2019]). […]
In order to test whether BKI 1369 affects initial host cell invasion by C. suis, freshly excysted sporozoites were pre-incubated with BKI 1369 or DMSO for 6 h at 37 °C. […] Readout for both growth (merozoite replication) and invasion-inhibition experiments was microscopical evaluation by counting free merozoites 9 days post-infection (dpi) from culture supernatants. Supernatants were collected and free merozoites were counted in pooled samples at 9 dpi from quadruplicate wells in C-Chip disposable hemocytometers (NanoEnTek/Roth Lactan, Graz, Austria). […]
Statistical calculations for in vivo trials were performed with RStudio version 1.1.453 (RStudio Team, 2018), descriptive statistics with Microsoft Excel 2010 (Microsoft Inc., Vienna, Austria) and GraphPad Prism version 5.04 for Windows (GraphPad Software, San Diego, California USA). […] In vitro assays were evaluated by t-tests with significance reported at P < 0.05. […]

[2] = Exp I group A: 1 × 20 mg/kg BW, SD 3 (0 dpi)
[3] = Exp I group B: 1 × 20 mg/kg BW, SD 5 (2 dpi)
[4] = Exp I group C: 2 × 20 mg/kg BW, SD 5 & 7 (2 & 4 dpi)
[5] = Exp II group W: 1 × 20 mg/kg BW, SD 5 (2 dpi)
[6] = Exp II group X: 1 × 10 mg/kg BW, SD 5 (2 dpi)
[7] = Exp II group Y: 1 × 5 mg/kg BW, SD 5 (2 dpi)

**Q.** With `CCOc1ccc2cc(-c3nn(CC4CCN(C)CC4)c4ncnc(N)c34)ccc2n1` [BKI 1369] as the molecule, how does the “BW SD 8” value [1, 2] read?
**A.** Its value is 2604 [283.8] g.

**Q.** And the “BW SD 15” value [1, 2]?
**A.** Its value is 4198.4 [573.9] g.

**Q.** What about the “BW SD 22” value [1, 2] of the same molecule?
**A.** The value was 6082 [750.1] g.

**Q.** What about the “BW SD 29” value [1, 2] of the same molecule?
**A.** The value was 7956 [750.22] g.

**Q.** What about the “BW SD 1” value [1, 2] of the same molecule?
**A.** Its value is 1276 [227.4] g.

**Q.** What about the “BWG SD 8 to 15 (mean body weight gain, acute phase of infection)” value ([1]; Exp I group A: 1 × 20 mg/kg BW, SD 3 (0 dpi), control D 1042 g, 20 mg/kg) of the same molecule?
**A.** Its value is 1594 g and 1594.4 g.

**Q.** And the “BW SD 8” value [1, 3]?
**A.** The value was 2530.9 [362.3] g.

**Q.** And the “BW SD 15” value [1, 3]?
**A.** The value was 4292.7 [724.9] g.

**Q.** What about the “BW SD 22” value [1, 3] of the same molecule?
**A.** Its value is 5892.7 [1225.6] g.

**Q.** What about the “BW SD 29” value [1, 3] of the same molecule?
**A.** Its value is 7721.8 [1710.2] g.

**Q.** What about the “BW SD 1” value [1, 3] of the same molecule?
**A.** Its value is 1214.5 [206.9] g.

**Q.** And the “BWG SD 8 to 15 (mean body weight gain, acute phase of infection)” value ([1]; Exp I group B: 1 × 20 mg/kg BW, SD 5 (2 dpi), control D 1042 g, 20 mg/kg)?
**A.** The value was 1762 g and 1761.8 g.

**Q.** And the “BW SD 8” value [1, 4]?
**A.** The value was 2494.5 [328.9] g.

**Q.** What about the “BW SD 15” value [1, 4] of the same molecule?
**A.** The value was 4267.3 [491.6] g.

**Q.** And the “BW SD 22” value [1, 4]?
**A.** The value was 5950.9 [619.6] g.

**Q.** And the “BW SD 29” value [1, 4]?
**A.** The value was 7867.3 [851.9] g.

**Q.** And the “BW SD 1” value [1, 4]?
**A.** Its value is 1163.6 [205.5] g.

**Q.** What about the “BWG SD 8 to 15 (mean body weight gain, acute phase of infection)” value ([1]; Exp I group C: 2 × 20 mg/kg BW, SD 5 & 7 (2 & 4 dpi), control D 1042 g, 20 mg/kg) of the same molecule?
**A.** The value was 1773 g and 1772.7 g.

**Q.** What about the “BW SD 8” value [1, 5] of the same molecule?
**A.** Its value is 3148.0 [610.4] g.

**Q.** And the “BW SD 15” value [1, 5]?
**A.** Its value is 5140.0 [830.8] g.

**Q.** And the “BW SD 22” value [1, 5]?
**A.** Its value is 6952.0 [1204.0] g.

**Q.** And the “BW SD 29” value [1, 5]?
**A.** The value was 9242.0 [1250.4] g.

**Q.** What about the “BW SD 1” value [1, 5] of the same molecule?
**A.** The value was 1606.0 [347.4] g.

**Q.** What about the “BWG SD 8 to 15 (mean body weight gain, acute phase of infection)” value ([1]; Exp II group W: 1 × 20 mg/kg BW, SD 5 (2 dpi), control Z 389 g, 20 mg/kg) of the same molecule?
**A.** Its value is 1992 g and 1992.0 g.

**Q.** And the “BW SD 8” value [1, 6]?
**A.** The value was 1968.0 [632.7] g.

**Q.** And the “BW SD 15” value [1, 6]?
**A.** The value was 4606.0 [745.5] g.

**Q.** And the “BW SD 22” value [1, 6]?
**A.** The value was 6502.0 [1068.4] g.

**Q.** What about the “BW SD 29” value [1, 6] of the same molecule?
**A.** Its value is 8752.0 [2465.6] g.

**Q.** And the “BW SD 1” value [1, 6]?
**A.** The value was 1472.0 [353.0] g.

**Q.** And the “BWG SD 8 to 15 (mean body weight gain, acute phase of infection)” value ([1]; Exp II group X: 1 × 10 mg/kg BW, SD 5 (2 dpi), control Z 389 g, 10 mg/kg)?
**A.** Its value is 1638 g and 1638.0 g.

**Q.** And the “BW SD 8” value [1, 7]?
**A.** The value was 2771.1 [654.5] g.

**Q.** And the “BW SD 15” value [1, 7]?
**A.** The value was 3891.1 [990.8] g.

**Q.** What about the “BW SD 22” value [1, 7] of the same molecule?
**A.** The value was 5782.2 [1340.1] g.

**Q.** What about the “BW SD 29” value [1, 7] of the same molecule?
**A.** Its value is 8055.6 [1626.8] g.

**Q.** And the “BW SD 1” value [1, 7]?
**A.** The value was 1444.4 [391.1] g.

**Q.** What about the “BWG SD 8 to 15 (mean body weight gain, acute phase of infection)” value ([1]; Exp II group Y: 1 × 5 mg/kg BW, SD 5 (2 dpi), control Z 389 g, 5 mg/kg) of the same molecule?
**A.** Its value is 1120 g and 1120.0 g.

**Q.** And the “Body weight gain compared to control piglets (in words)” value ([1]; irrespective of time points and frequencies of treatment)?
**A.** The value was “significant increase in body weight gain”.

**Q.** And the “Pre-incubation concentrations that significantly reduced total merozoite counts at 9 dpi” value (C. suis sporozoites; sporozoites pre-incubated 6 h at 37 °C, washed, IPEC-1, P < 0.05 vs DMSO-only and no-treatment)?
**A.** The value was no less than 200 nM.

**Q.** What about the “Pre-incubation concentrations that completely failed to inhibit host cell invasion” value (C. suis sporozoites; sporozoites pre-incubated 6 h at 37 °C, washed, IPEC-1, vs DMSO-only and no-treatment) of the same molecule?
**A.** The value was no more than 100 nM.

**Q.** What about the “Inhibition of infection in vitro by pre-incubation of sporozoites” value (C. suis sporozoites; unless treatment was prolonged post-infection) of the same molecule?
**A.** Its value is “completely failed to inhibit the infection”.

From paper PMC7442133, “Reduced treatment frequencies with bumped kinase inhibitor 1369 are effective against porcine cystoisosporosis” (International Journal for Parasitology: Drugs and Drug …, 2020)
